Holding throughout (assay type): functional
Test [1] relates to NCI-H520. Nature of the test: Growth inhibitory activity against H520 (human lung) cancer cell line at 10 uM dose.
Test [2] concerns NCI-H520. The test is described as follows: Growth inhibitory activity against H520 (human lung) cancer cell line at 100 uM dose.
In test [3] the test system is MCF7. Nature of the test: Growth inhibitory activity against MCF-7 (human breast) cancer cell line at 10 uM dose.
Test [4] deals with MCF7. The test is described as follows: Growth inhibitory activity against MCF-7 (human breast) cancer cell line at 100 uM dose.
In test [5] the test system is PC-3. The test is described as follows: Growth inhibitory activity against PC-3 (human prostate) cancer cell line at 10 uM dose.
For test [6], the system named is PC-3. Nature of the test: Growth inhibitory activity against PC-3 (human prostate) cancer cell line at 100 uM dose.
For test [7], the system named is MCF7. Nature of the test: Gowth inhibitory activity against MCF-7 (human lbreast) cancer cell line.
In a further test the test system is NCI-H522. Nature of the test: Growth inhibitory activity against NCI-H522 (human lung) cancer cell line.
Test [8] concerns PC-3. Nature of the test: Growth inhibitory activity against PC-3 (human prostate) cancer cell line.

For `CC(C)=CCc1[nH]c2ccccc2c1C[C@H]1NC(=O)[C@H]2CCCN2C1=O`, the Cell survival in the test on NCI-H520 [1] is recorded as above 100%; in the test on NCI-H520 [2], 99.8%; in the test with MCF7 [3], above 100%; in the test with MCF7 [4] it was above 100%; in the test with PC-3 [5], 95.8%; in the test with PC-3 [6] it was 78.9%.
With `CC(C)=CCc1[nH]c2ccccc2c1C[C@H]1NC(=O)[C@@H]2CCCN2C1=O`, the Cell survival with NCI-H520 [1] is above 100%; in the test on NCI-H520 [2], 76.5%; in the test with MCF7 [3], above 100%; in the test on MCF7 [4], above 100%; in the test on PC-3 [5], 97.3%; in the test on PC-3 [6], 68.5%.
What is called GI50 is the concentration giving 50% growth inhibition. A higher GI50 goes with lower sensitivity of the cells. For `CC(C)=CCc1[nH]c2ccccc2c1C[C@@H]1NC(=O)[C@H]2CCCN2C1=O`, the Cell survival with NCI-H520 [1] was 88.3%; in the test with NCI-H520 [2], 0.1%; in the test with MCF7 [3], 73.6%; with MCF7 [4], 0%; with PC-3 [5] it was 59.3%; with PC-3 [6], 0.2%. Further, the GI50 in the test on MCF7 [7] turned out to be 15.9 µM; in the test on NCI-H522, 15.8 µM; in the test with PC-3 [8] it was 11.9 µM.
Consider `COc1ccc2c(C[C@H]3NC(=O)[C@H]4CCCN4C3=O)c(CC=C(C)C)[nH]c2c1`, for which the Cell survival is given as 81.7% in the test with NCI-H520 [1]; 75.2% in the test with NCI-H520 [2]; above 100% in the test on MCF7 [3]; above 100% in the test on MCF7 [4]; above 100% with PC-3 [5]; 83.7% with PC-3 [6].
For the compound `COc1ccc2c(C[C@@H]3NC(=O)[C@H]4CCCN4C3=O)c(CC=C(C)C)[nH]c2c1`, the Cell survival with NCI-H520 [1] is reported as 99.3%; with NCI-H520 [2], 98.5%; in the test with MCF7 [3], above 100%; with MCF7 [4] it was 99%; in the test on PC-3 [5], above 100%; in the test on PC-3 [6] it was above 100%.
For `COc1ccc2c(C[C@H]3NC(=O)[C@@H]4CCCN4C3=O)c(CC=C(C)C)[nH]c2c1`, the Cell survival in the test on NCI-H520 [1], with NCI-H520 [2], with MCF7 [3], in the test on MCF7 [4], in the test on PC-3 [5] and with PC-3 [6] was above 100% throughout.
For the compound `COc1ccc2c(C[C@@H]3NC(=O)[C@@H]4CCCN4C3=O)c(CC=C(C)C)[nH]c2c1` [TRYPROSTATIN A], the Cell survival with NCI-H520 [1] is listed as 80.1%; with NCI-H520 [2], 79.4%; in the test on MCF7 [3], above 100%; with MCF7 [4] it was 95%; with PC-3 [5], 99.2%; in the test on PC-3 [6], 95.6%.
On to `CC(C)=CCc1[nH]c2ccccc2c1C[C@@H]1NC(=O)[C@@H]2CCCN2C1=O` [TRYPROSTATIN B], for which the Cell survival stood at 77.6% with NCI-H520 [1]; 60.5% in the test with NCI-H520 [2]; 88.2% in the test on MCF7 [3]; 66.7% in the test on MCF7 [4]; 95.5% with PC-3 [5]; 68.9% with PC-3 [6].

(Values after ChEMBL document CHEMBL1135835, “Biological activity of the tryprostatins and their diastereomers on human carcinoma cell lines” (2002).)
